Measurements: patent publication US20220331433A1, “NUCLEIC ACID-MEDIATED DELIVERY OF THERAPEUTICS” (The Regents of the University of California, priority 2019, published 2022)
Entries after “also recorded” stand apart in the source; their conditions may differ. Read-outs that look alike come from different tables or passages of the source.

Key:
[1] = Stability of DNA in water and PBS (TEM); type: physicochemical; settings: [DNA] 6 μg/mL
Method: Stability of DNA in water and PBS. DNA was prepared in PBS and diluted in H2O and then imaged. Final [DNA]=6 μg/mL.

[2] = DNA degradation in 10% FBS/PBS (agarose gel); type: physicochemical; settings: 37° C., 0 to 48 h, [DNA] 100 μg/mL
Method: DNA Degradation in 10% FBS/PBS. A 1% (w/v) agarose gel in 1×Tris Acetate EDTA (TAE) containing 1 μg/mL ethidium bromide was used to characterize the degradation of DNA in 10% FBS/PBS over 48 hours. DNA was incubated with serum-containing PBS at 37° C. over time. Samples were stored in −20° C. to stop enzymatic degradation from nucleases at each time point. The concentration of DNA=100 μg/mL. The gel was run at 100 V for 40 minutes and DNA was imaged on a UV transilluminator (Fotodyne, Heartland, Wis.).
DNA Degradation in 10% FBS/PBS. To determine the stability of the DNA to serum exposure, DNA (100 μg/mL) was incubated with serum-containing PBS at 37° C. over a time period of 0 to 48 h. Samples were stored in −20° C. to stop enzymatic degradation from nucleases at each time point. […] It is likely that the nucleases in the serum-containing media are contributing to the degradation of DNA. It is possible to infer a delayed release of DOX due to this degradation of DNA overtime in 10% FBS.

EL4 cells [3] = experiment: EL4 cytotoxicity, MTT assay; type: cell-based
Method: EL4 Cytotoxicity. EL4 cells (ATCC, Rockville, Md.) were plated at 10 k cells per well in a 96-well plate. The plated cells were treated in triplicate for 24, 48, or 72 hours with a range of concentrations of 0.001 μg/mL DOX or DOX equivalent to 10 μg/mL, followed by cellular viability analysis via MTT assay. Cells were incubated at 37° C., 5% CO2, and 100% humidity.
EL4 cells were treated in triplicate for 24, 48, and 72 hours with a range of concentrations, followed by cellular viability analysis via an MTT assay.

[4] = Pharmacokinetics in EL4-challenged C57BL/6 mice; type: in vivo
Method: Pharmacokinetics. […] Blood samples were collected from the saphenous vein of the mice at each time point, spun down in a serum collection tube, and the resultant supernatant was analyzed in acidified alcohol for DOX fluorescence using the Multi-Mode reader.
The mice were 6-8-week-old female mice.

[5] = Complete blood count and liver enzyme panel; type: in vivo; settings: 20 mg/kg DOX or DOX equiv., tail vein, 24 h p.i., C57BL/6 mice, n=3
Method: Hematotoxicity and Liver Enzyme Panel. The mice used in this study were 6-12 week-old female C57BL/6/027 mice (Charles River Laboratories, Wilmington, Mass., USA). The mice were administered treatment via tail vein injection. After 24 h, complete blood count (CBC), and liver enzyme levels were measured. Blood for CBC was collected by saphenous vein collection, mixed with EDTA, and analyzed with a hematology analyzer for white blood cells (WBC), red blood cells (RBC), hemoglobin (Hgb), platelets (Plt) and hematocrit (HCT). For the liver enzyme panel, serum was isolated from blood and sent to IDEXX Laboratories, Inc. (Westbrook, Me.) for alkaline phosphatase (ALP), aspartate aminotransferase (AST), alanine aminotransferase (ALT), and total bilirubin analysis.
Complete blood count and liver enzyme panel of DOX/DNA and DOX. A complete blood count and liver enzyme panel were conducted in C57BL/6 mice treated with 20 mg/kg DOX, 20 mg/kg DOX equiv. of DOX/DNA, PBS, or 120 mg/kg DNA, n=3. […] After 24 h p.i., complete blood count (CBC), and liver enzyme levels were measured. Blood was collected by saphenous vein collection, mixed with EDTA, and analyzed with a hematology analyzer for white blood cells (WBC), red blood cells (RBC), hemoglobin (Hgb), platelets (Plt) and hematocrit (HCT). […]

EL4 cells [6] = experiment: Endocytosis inhibition, EL4 cellular uptake; type: cell-based; settings: inhibitors CPZ, Filipin III, EIPA, NaN3, PS2 or 4° C., 1 hour treatment
Method: Endocytosis Inhibition. EL4 DOX uptake from DOX or DOX/DNA treatment after exposure to inhibitors NaN3 (120 mM), PS2 (12 μg/mL), Filipin III (5 μg/mL), CPZ (20 μM), EIPA […], or 4° C. was measured using flow cytometry or spectrofluorimetry. Briefly, cells were primed for 15 minutes with the inhibitors before being treated for 1 hour with DOX or DOX/DNA. Cells containing DOX or DOX/DNA were counted with the flow cytometer using yellow fluorescence, and cells containing DOX/DNA were counted using spectrofluorimetry. Fluorescence was measured using a Guava® easyCyte™ Flow Cytometer (Millipore Sigma, Burlington, Mass.) or the Multi-Mode reader (Biotek Instruments, Winooski, Vt.).
Endocytosis inhibition and the effect on DOX/DNA and DOX uptake. The effect of inhibitors CPZ (20 μM), Fillipin III […], EIPA (20 μM), and various combinations thereof, or 4° C. on EL4 cellular uptake was evaluated for DOX/DNA (see FIG. 22). Chlorpromazine (CPZ) is a clathrin-dependent pathway inhibitor. […] The concentrations chosen for the assay were determined using a dose-response assay for each inhibitor.
DOX uptake by EL4 cells was tested with inhibitors: NaN3 (120 mM), PS2 (12 μg/mL), Filipin III (5 μg/mL), EIPA (20 μM), and 4° C. Uptake was measured using flow cytometry. […] Cells containing DOX were counted with the flow cytometer using yellow fluorescence.

[7] = Titration of DOX, DNA and DOX/DNA; type: physicochemical
Method: Titration of DOX, DNA, and DOX/DNA using a weak base. DOX, DNA or DOX/DNA were made in water at an initial volume of 1 mL. DOX equiv. at 600 μg/mL. The pH was then brought down below 2 with 1 M HCl, then the pH was adjusted higher using small volumes (100 μL or 20 μL) of 0.1 M NaOH.

[8] = Acute toxicity survival in C57BL/6 mice; settings: 40 mg/kg dose, n=7

Substance | Stability in water or PBS [1] | Degradation in serum [2] | IC50 (EL4 cells [3]; 24 h incubation) | IC50 (EL4 cells [3]; 24 h incubation, read-out: IC50) | IC50 (EL4 cells [3]; 48 h incubation) | IC50 (EL4 cells [3]; 72 h incubation) | Blood circulation residence half-life T1/2 ([4]; 20 mg/kg DOX or DOX equiv. i.v., n=3) | Time of absorption by the tissue ([4]; 20 mg/kg i.v.) | Effect on circulating blood cells and liver enzymes [5] | Cellular uptake pathway (EL4 cells [6]) | pKa (amine) [7] | pKa (estimated) [7] | pKa (phenol) [7] | Acute toxicity [8]
Deoxyribonucleic acid [DNA] | largely stable | degraded serum in a time dependent manner; also recorded: degraded overtime |  |  |  |  |  |  |  |  |  |  |  | 
Doxorubicin |  |  | 0.313 µg/mL | 576 nM | 0.093 µg/mL | 0.048 µg/mL | 3 min | ~15 min | greater impact | primarily via membrane fusion | 8.46 | 9.46 | 7.34 | acute toxicity (cardiac arrest)
